Measured values reported in patent US20160022724A1, “METHODS FOR TREATING PARAMYXOVIRUSES” (Alios BioPharma, Inc., priority 2014, published 2016).

How the values were obtained:
[1] = test system: RSV-A Memphis 37b challenge virus; assay: human RSV challenge model (viral load in nasal washes by plaque assay and PCR); type: in vivo
Method: Healthy adults received one of the following dosing regimens or placebo over 5 days using the human RSV challenge model.
Subjects were given an intranasal inoculation of RSV-A Memphis 37b challenge virus. Administration of compound (A), or a pharmaceutically acceptable salt thereof, began approximately 12 hours after confirmation of RSV infection as determined by the presence of RSV RNA in nasopharyngeal washes. The test compound was administered as an oral-liquid suspension, wherein the drug vehicle was methyl cellulose and sterile water. The placebo was the drug vehicle without the test compound. Second dosages were started 12 hours after administration of the first dosage, and the remaining second dosages were provided in approximate 12 hour intervals. Nasal washes were collected twice daily approximately 36 to 48 hours after RSV inoculation until Day 12. Viral load was detected and quantified from the aliquots of the nasal wash samples using tissue infectivity plaque assays and PCR. (See DeVincenzo, J. P., et al., Am. J. Respir. Crit. Care. Med. (2010) 182(10):1305-1314) Subjects returned for two follow-up visits on Day 16 (±2 days) and Day 28 (±2 days) post-challenge inoculation.

[2] = half life of the triphosphate compound (B); details: triphosphate formed inside the cell
Text: The compounds (A) and (B), or a pharmaceutically acceptable salt of the foregoing, are described in U.S. Publication Nos. 2013/0165400 and 2015/0051167 and International Publication Nos. WO 2013/142525 and WO 2013/142525, all of which are hereby incorporated by reference in their entireties. Those skilled in the art understand that once compound (A), or a pharmaceutically acceptable salt thereof, is absorbed, the groups attached to 3′ and 5′ positions can be easily removed by esterases, proteases and/or other enzymes. Once inside the cell, the triphosphate (compound (B), or a pharmaceutically acceptable salt thereof) can be formed via metabolization by cellular enzymes.

SMILES | RSV RNA ([1]; Day 12, all treated subjects) | RSV RNA ([1]; Day 16 follow-up) | RSV RNA ([1]; Day 28 follow-up) | RSV viral load compared to the placebo ([1]; all regimens (750/150 mg, 750/500 mg, 375 mg), oral, 5 days, healthy adults, nasal wash, FIG. 1) | clinically significant laboratory abnormalities ([1]; healthy adults, 5 days dosing) | discontinuation of treatment during the study ([1]; healthy adults, 5 days dosing) | reduction of plaque forming units equivalents (PFUe/mL) ([1]; subjects who received 750 mg on Day 1, within the first 24 hours) | half-life [2]
CC(C)C(=O)OC[C@@]1(CCl)O[C@@H](n2ccc(N)nc2=O)[C@H](F)[C@@H]1OC(=O)C(C)C [Compound (A)] | undetectable | undetectable | undetectable | marked reduction in RSV viral load | no clinically significant laboratory abnormalities were observed | no subject discontinued treatment | multi-log reduction | –
Nc1ccn([C@@H]2O[C@](CCl)(COP(=O)(O)OP(=O)(O)OP(=O)(O)O)[C@@H](O)[C@H]2F)c(=O)n1 [Compound (B)] | – | – | – | – | – | – | – | ~17.6 h
